Tests used:
Type in all cases: cell-based, human
[1] = tested on: ETC components (UQCRC2, COXII, NDUFB8) in PA cell line Fb859 and MMA cell line Fb857; test: Detection of ETC components by western blots; settings: FIG. 11; 72 h treatment
Procedure: FIG. 11 are western blots showing correction in the signals of Complex III subunit Core 2 48-kDa (UQCRC2), Complex IV subunit II 22-kDa (COXII), and Complex I subunit NDUFB8 18-kDa that is most pronounced in the propionic acidemia (PA) cell line Fb859 compared to the methylmalonic aciduria (MMA) cell line Fb857.
Detection of ETC components by western blots: Same as above, media A for control, and media B for untreated and treated cells in T75 flasks. Amounts of compounds were added appropriately directly to cell culture media when the cultures were about 85-90 confluent. The cultures were allowed to grow for 72 h at 37° C./5% CO2, and then harvested. Harvested cell pellets were stored at −80° C. until immune and enzymatic assay and western blot analyses of OXPHOS subunits. One to 1.5 ml media samples were also stored at −80° C. for.

[2] = tested on: control fibroblast cell line FB826; test: Mitochondrial ROS production using MitoSOX Red; settings: FIG. 15A; 180 and 640 μM, 72 h
Excerpt: (§1) FIGS. 15A-15D are graphs showing the measurement of mitochondrial reactive oxygen species (ROS) production using MitoSOX Red as Superoxide indicator probe. FIG. 15A is a graph showing control fibroblast cell line FB826 treated with PMA010, PMA011, PMA019, and PMA020. FIG. 15B is a graph showing propionic acidemia (PA) patients' fibroblast cell linc Fb859 treated with PMA010, PMA011, PMA019, and PMA020. FIG. 15C is a graph showing propionic acidemia (PA) patients' fibroblast cells line Fb900 treated with PMA010, PMA011, PMA019, and PMA020. FIG. 15D is a graph comparing ROS production levels in response to treatment with PMA011 in Control fibroblast cell line (FB826), PA fibroblast cell line (Fb900), and glutaric acidemia II (GA II) patient fibroblast cell lines (Fb930, Fb961). Data are the average of readings from 3 replicate wells.
(§2) Measurement of mitochondrial ROS production using MitoSOX Red as superoxide indicator probe: control (Fb826), PA patient (Fb859, Fb900) and GA II patient (Fb930, Fb961) fibroblasts were grown in regular DMEM media containing glucose/pyruvate/L-glutamine until 85-90% confluency. The cells were harvested and seeded at a concentration of 25,000 cells/80 μl (n=3) in cell culture treated black wall 96 well microplate with clear bottom in regular DMEM media containing glucose/pyruvate/L-glutamine and incubated overnight at 37° C. in a 5% CO2 incubator. Following day, the culture media was replaced in designated wells with the following for 72 h: 150 μl regular DMEM (Glucose+10% FBS+sodium pyruvate+L-glutamine+0.5 mM carnitine). 150 μl of Regular DMEM containing experimental compounds (180 and 640 μM) PMA010 or PMA011 or PMA 019 and (640 μM) PMA020 in control and propionic acidemia patient fibroblasts. 150 μl of regular DMEM containing experimental compounds (600 and 1200 μM) PMA011 in Fb930 and (1200 μM) PMA011 in Fb961 GA II patient fibroblast. After 72 h incubation the wells were washed twice with 150 μL of Seahorse XFDMEM base media and in respective designated wells the following Assay buffer (150 μL of seahorse XFDMEM base media containing glucose, sodium pyruvate and Glutamine) was used along with 5 μM MitoSOX reagent and incubated at 37° C. non-CO2 incubator for 15 minutes protected from light. After 15 minutes incubation the cells were washed twice with 150 μL of seahorse XFDMEM base media and replaced with measurement buffer, which is same as the wash buffer. The fluorescence was monitored with excitation at 520 nm and emission at 580 nm. Finally, cells were lysed, and protein content was determined. Data is normalized to protein concentration and fluorescence is reported as MitoSOX Red (AFU)/mg protein.

[3] = tested on: propionic acidemia (PA) fibroblast cell line Fb900; test: Mitochondrial ROS production using MitoSOX Red; settings: FIG. 15C; 180 and 640 μM, 72 h
Excerpt: as §1, §2

[4] = tested on: Fb859 propionic acidemia patient fibroblasts; test: Lysine succinylation of cellular proteins by immunofluorescence confocal microscopy; settings: media without glucose
Procedure: FIG. 7 are immunocytochemistry photomicrographs showing the effect of incubation of Fb859 propionic acidemia patient fibroblasts on for lysine succinylation with 90 μM of PMA010, 90 μM of PMA011, 90 μM of succinic acid, 90 μM of methylmalonic acid, or 90 μM adipic acid for 72 hours. Immunocytochemistry of the fibroblast cells were stained for anti-succinyllysine antibody, anti-MTCO1 antibody and DAPI for nuclei. Instrument: Zeiss LSM 710 confocal Microscopy. Magnification: 40×. The cells were grown in glass coverslips at a seeding density of 3-5×10^4 cells. The media for untreated and treatment groups had no glucose, glutamine or pyruvate, and lipid stripped FBS was included instead of regular FBS. Scale bar=20 μm.
FIGS. 8A-8F are a comparison of lysine succinylation of cellular proteins visualized by immunofluorescence confocal microscopy in a Propionic Acidemia (Fb859) patient untreated (FIG. 8A) and treated with 30 μM and 90 μM of D-Serine (FIG. 8B), 30 µM and 90 μM of PMA007 (FIG. 8C), or 30 μM and 90 μM of PMA010 (FIG. 8D). Scale bar=20 μm. FIG. 8E is a bar graph showing the quantification of the percent change in lysine succinylation (green) signal, from the immunofluorescence confocal micrographs of FIGS. 8B and 8C, in response to the treatment of D-serine and PMA007. FIG. 8F is a bar graph showing the quantification of the percent change in lysine succinylation (green) signal, from the immunofluorescence confocal micrographs of a D-Serine repeat experiment and FIG. 8D, in response to the treatment of D-serine and PMA010. Asterisks indicate statistical significance calculated at the raw data level (n=3); **P<0.01, ***P<0.001, ****P<0.0001 statistically compared to untreated. Statistical analysis used T-test.
Immunohistochemistry: Patient cells were grown in glass coverslips at a seeding density of 3-5×10^4 cells. The media for untreated and treatment groups had no glucose, glutamine or pyruvate, and lipid stripped FBS was included instead of regular FBS. NIH Image J software was used to quantify the fluorescence intensity from 50-60 cells per group. Immunocytochemistry of propionic acidemia patient (Fb859) fibroblast cells lines stained for anti-succinyllysine (Green), anti-MTCO1 (Red), or anti-TOMM20 antibodies, and DAPI (Blue) for nuclei. Instrument: Zeiss LSM 710 confocal Microscopy. Statistical analysis used Tukey multiple range test. ****P<0.0001, [PMA010] (90 μM) treatment group statistically compared to control cells grown in the presence of regular complete DMEM media, untreated and [PMA010] (30 μM) cells grown in the absence of glucose/pyruvate/L-glutamine.

Compound: C[C@@H](NC(=O)CCCCC(=O)O)C(=O)N[C@H](Cc1c[nH]cn1)C(=O)O [PMA010, 6-(((R)-1-(((R)-1-carboxy-2-(1H-imidazol-4-yl)ethyl)amino)-1-oxopropan-2-yl)amino)-6-oxohexanoic acid]
- correction in the signals of UQCRC2, COXII and NDUFB8 (western blot) [1]: better effect compared to PMA007
- ROS detected (MitoSOX Red) [2]: significant decrease in ROS
- ROS detected (MitoSOX Red) [3]: significant decrease in ROS
- lysine succinylation (green staining) compared to untreated cells ([4]; FIG. 7, 90 μM, 72 hours, glutamine or pyruvate, lipid stripped FBS): obvious increase in the green staining
- lysine succinylation (green) signal ([4]; FIGS. 8A-8F, 30 μM and 90 μM, pyruvate, glutamine, stripped FBS): Restoration of lysine succinylation (green) signal

From patent US20260021186A1, “Fatty Acid-D-Amino Acid Peptides Conjugates as Anaplerotic Compounds for Use in Treating Propionic Acidemia, Methylmalonic Acidurias, and Energy Metabolic Disorders” (University of Pittsburgh - Of the Commonwealth System of …, priority 2022, published 2026)
